Data set [1] can be described thus: Half life in rhesus monkey at 10 mg/kg, iv. Type of data set: ADME, organism-based, Macaca mulatta. The following applies: in vivo.
Data set [2] deals with Ebolavirus. As to the kind of experiment: Antiviral activity against Ebolavirus infected in PBMC (unknown origin) assessed as reduction in viral replication after 24 hrs. In kind it is functional.
Data set [3] in a line: Drug metabolism in PBMC (unknown origin) assessed as half life for active triphosphate formation. Type of data set: ADME, cell-based.
Data set [4] deals with Ebolavirus. As to the kind of experiment: Antiviral activity against Ebolavirus assessed as reduction in viral replication. Type of data set: functional. The following applies: Orthoebolavirus.
Data set [5] has as its system Ebolavirus. The experiment in a line: Antiviral activity against Ebolavirus infected in rhesus monkey assessed as protection against viral disease administered intravenously as once daily regimen. In kind it is functional.
The nature of data set [6]: Tmax in human at 0.025 to 2 mg/kg dosed as single and multiple doses. In kind it is ADME, organism-based. Conditions: in vivo.
A short description of data set [7]: Half life in human at 0.025 mg/kg dosed as single and multiple doses. Type of data set: ADME, organism-based. Conditions: in vivo.
Data set [8] is described as follows: Half life in human at 1.5 mg/kg dosed as single and multiple doses. Conditions: in vivo. In kind it is ADME, organism-based.
The nature of data set [9]: Toxicity in patients with solid malignancies assessed as incidence of thrombocytopenia. The following applies: human, in vivo.
Data set [10] in a line: Toxicity in patients with solid malignancies assessed as incidence of anemia. Conditions: human, in vivo.
For a further data set, the species on record is Mus musculus. The experiment in a line: Toxicity in mouse assessed as body weight loss. In kind it is organism-based. The following applies: in vivo.
Data set [11] can be described thus: Toxicity in patients with solid malignancies assessed as incidence of transaminitis. Conditions: human, in vivo.
Data set [12] is described as follows: Toxicity in patients with solid malignancies assessed as incidence of fatigue. The following applies: human, in vivo.

By half-life is commonly meant the time in which the quantity being followed falls by half. As a reminder, the EC50 is the concentration giving half of the maximal effect. Take `CCC(CC)OC(=O)[C@H](C)N[P@@](=O)(OC[C@H]1O[C@@](C#N)(c2ccc3c(N)ncnn23)[C@H](O)[C@@H]1O)Oc1ccccc1`: the half-life in [1] was 0.39 h. Besides, in the data set on Ebolavirus [2], the “inhibition (INH)” value was over 50%. Besides, the t1/2 in data set [3] worked out at 14 h. Besides, the EC50 in the data set on Ebolavirus [4] fell in the range of 60 to 140 nM. The Activity in the data set with Ebolavirus [5] amounted to 100%.
For orientation: Tmax means the time at which the peak concentration occurs. `CCCCCCCCCCCCCCCCOCCCOP(=O)(O)CO[C@H](CO)Cn1ccc(N)nc1=O` [BRINCIDOFOVIR]: the Tmax in data set [6] is 7 to 15 h. Besides, the values for the half-life in data set [7] and in data set [8] were 6.15 h and 32.7 h, respectively.
Consider `C[C@H](NP(=O)(OC[C@H]1O[C@@H](n2ccc(N)nc2=O)C(F)(F)[C@@H]1O)Oc1ccccc1)C(=O)OCc1ccccc1` (some centres undefined) [FOSGEMCITABINE PALABENAMIDE], for which the Activity in [9] is recorded as 53%; in data set [10], 67%; in the data set filed under Mus musculus, under 2%; in data set [11], 64%; in data set [12] it was 67%.
For the compound `N#C[C@@]1(c2ccc3c(N)ncnn23)O[C@H](CO)[C@@H](O)[C@H]1O` [GS-441524], in the data set on Ebolavirus [4], the EC50 was in the range of 770 to 20000 nM.

These data come from ChEMBL document CHEMBL3860042, “Nucleoside Phosphate and Phosphonate Prodrug Clinical Candidates” (J Med Chem, 2016).
